Measurements: US11986512B2, “Compositions and methods for cancer therapy” (Thetis Pharmaceuticals LLC, priority 2021, dated 2024)

System: LLC cells
Assay: Metastatic LLC resection model, perioperative (neo-adjuvant) treatment
Type: in vivo, C57BL/6J male mice
Details: 300 ug/kg, SC, Q6D, first dose 2 hours prior to surgery
Protocol: To investigate the efficacy of LTD dosing of bis RvE1 Mg-di-lysinate as neo-adjuvant therapy, a study was conducted in the metastatic LLC resection model with treatment initiated in the perioperative window. A total of fifteen (15) C57BL/6J male mice were injected subcutaneously with 1×10e6 living LLC cells. Once tumors reached approximately 1200-1500 mme3 in size, the mice were randomized (n=4-8 per group) to treatment with vehicle (SC, Q6D), bis RvE1 Mg-di-lysinate (300 ug/kg, SC, Q6D), or cisplatin (5 mg/kg, i.p, Q6D), followed by surgical resection of the tumors. The mice in the vehicle and cisplatin groups received an initial dose twenty-four (24) hours prior to surgery, and the mice treated with bis RvE1 Mg-di-lysinate received an initial dose two (2) hours prior to surgery. All mice were sacrificed on day 19 following the death of three mice in the vehicle control group on day 18.

SMILES: CC[C@@H](O)/C=C/C=C\C[C@@H](O)/C=C/C=C/C=C\[C@@H](O)CCCC(=O)O [bis RvE1 Mg-di-lysinate]
- number of lung metastases (compared to vehicle control and cisplatin, p<0.05): significantly reduced the number of lung metastases
- number of mice with metastasis in the axillary or inguinal lymph nodes (compared to vehicle or cisplatin, p<0.01): significantly reduced the number of mice with metastasis in the axillary or inguinal lymph nodes
